Calls of active or inactive are those of the source. No rule for the calls is given here.
What follows are compounds tested against Ubiquitin carboxyl-terminal hydrolase 10 (Homo sapiens) (UniProt Q14694) (assay: ubiquitin-specific protease 10 DUB inhibitors, concentration-effect, biochemical, verification of primary screen actives (AID 1645863;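 also: potency values describe inhibition of USP10 cleavage of a fluorogenic ubiquitin substrate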)). Details: USP10 deubiquitinase enzymatic assay.
Ubiquitin carboxyl-terminal hydrolase 10 (Homo sapiens), sequence (Q14694 whole entry, looked up): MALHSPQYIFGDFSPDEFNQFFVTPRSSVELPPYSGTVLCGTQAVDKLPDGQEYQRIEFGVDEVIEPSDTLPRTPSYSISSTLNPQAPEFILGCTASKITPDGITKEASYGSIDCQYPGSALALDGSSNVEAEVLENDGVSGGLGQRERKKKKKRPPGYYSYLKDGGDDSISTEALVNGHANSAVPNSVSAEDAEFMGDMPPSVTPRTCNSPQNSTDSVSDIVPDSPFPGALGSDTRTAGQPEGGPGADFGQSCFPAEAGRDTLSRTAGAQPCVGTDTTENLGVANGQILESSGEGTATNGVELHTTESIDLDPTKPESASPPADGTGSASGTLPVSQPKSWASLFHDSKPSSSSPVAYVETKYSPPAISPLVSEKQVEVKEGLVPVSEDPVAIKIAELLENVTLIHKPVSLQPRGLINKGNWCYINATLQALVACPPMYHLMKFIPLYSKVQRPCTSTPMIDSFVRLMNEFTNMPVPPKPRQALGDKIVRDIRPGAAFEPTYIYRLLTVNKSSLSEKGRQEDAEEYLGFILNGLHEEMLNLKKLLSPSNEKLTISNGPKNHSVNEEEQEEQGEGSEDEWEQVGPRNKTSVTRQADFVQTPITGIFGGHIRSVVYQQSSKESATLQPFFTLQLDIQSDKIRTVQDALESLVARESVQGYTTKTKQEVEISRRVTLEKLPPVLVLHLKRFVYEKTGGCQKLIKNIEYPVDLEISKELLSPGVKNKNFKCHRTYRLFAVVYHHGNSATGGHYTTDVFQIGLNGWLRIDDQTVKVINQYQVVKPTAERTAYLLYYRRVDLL
With `N#Cc1cccc(NC(=O)COC(=O)c2n[nH]c3ccccc23)c1` the IC50 was 19.8 µM. `O=C(CCCCn1c(=O)c2ccccc2n(CC(=O)Nc2ccc3c(c2)OCCO3)c1=O)NCc1ccco1` was tested, and the IC50 was 25.2 µM. With `Oc1cccc2nc3c(O)cccc3nc12` the IC50 was 11.3 µM. `O=C(NC1CCCCC1)C(c1ccc(F)cc1)N(C(=O)C1COc2ccccc2O1)c1ccc2c(c1)OCO2` (stereo unspecified) was tested, and the IC50 was > 40 µM (inactive). With `CCC/C=C\C#CC/C=C\CCCCCCCC(=O)O` the IC50 was 3.3 µM. For `O=C(Cn1c(=O)c2sccc2n(Cc2ccc([N+](=O)[O-])cc2)c1=O)NCCc1ccccc1`, the IC50 was > 40 µM (inactive). `O=C(COC(=O)c1cc2c(s1)CCC2)c1ccc2[nH]c(=O)[nH]c2c1` was tested, and the IC50 was > 40 µM (inactive). `Cc1ccc2c(c1)N=C(c1ccc([N+](=O)[O-])cc1)CO2` was tested, and the IC50 was > 40 µM (inactive). `N#Cc1ccccc1NC(=O)c1cc2c(s1)-c1ccccc1S(=O)(=O)C2` gave an IC50 of 34.6 µM. For `O=C(COc1ccc(Cl)cc1)Nc1noc(-c2cccs2)n1`, the IC50 was > 40 µM (inactive). `O=c1[nH]c(C2CCN(S(=O)(=O)c3ccc(S(=O)(=O)NC4CCCCC4)cc3)CC2)nc2c1nnn2Cc1ccc(F)cc1` was tested, and the IC50 was 21.9 µM. `Cc1cc(C)c(NC(=O)Cn2c(SCc3cccc(F)c3)nc3cccnc32)c(C)c1` was tested, and the IC50 was > 40 µM (inactive). Compound `O=C1c2c(O)c(Cl)cc3c2[C@@]2(Oc4ccc(O)c5c4[C@]3(O2)[C@@H]2O[C@@H]2C5=O)[C@@H]2O[C@H]12` has an IC50 of 1.31 µM. With `Cc1ccc(C2c3[nH]c4ccccc4c3C[C@H]3C(=O)N(c4ccc(C(=O)NCCc5ccccc5)cc4)C(=O)N23)cc1` (stereo partly specified) the IC50 was > 40 µM (inactive). `COc1ccc(CNc2ccc(C(=O)OCc3ccccc3F)cc2S(=O)(=O)Nc2cccc(OC)c2)cc1` was tested, and the IC50 was > 40 µM (inactive). For `COc1cccc(-c2cncc(C3CCN(S(=O)(=O)N(C)C)CC3)n2)c1`, the IC50 was > 40 µM (inactive). Work on `COc1ccc(NC(=O)Cn2c(=O)n(-c3ccc(CC(=O)NCc4ccco4)cc3)c(=O)c3ccccc32)cc1Cl` yielded an IC50 of 15.1 µM. With `O=C(CNC(=O)OCc1ccccc1)Nc1ccc(Br)cc1C(=O)c1ccccc1Cl` the IC50 was > 40 µM (inactive). In the case of `CCOc1ccc(-c2nc(SCC(=O)Nc3cccc(C)c3)n3[nH]c(=O)cc3n2)cc1`, the IC50 is reported as > 40 µM (inactive). `Cc1noc(/C=C/Nc2cc(Cl)cc(Cl)c2)c1[N+](=O)[O-]` was tested, and the IC50 was > 40 µM (inactive). In the case of `Cc1nn(-c2ccccc2)c2c1nc(CCC(=O)NC1CCCCC1)c(=O)n2C`, the IC50 is reported as > 40 µM (inactive). For `COc1ccc(C)cc1NC(=O)Nc1nnc(CC(=O)NCc2ccccc2)s1`, the IC50 was > 40 µM (inactive). With `Cc1ccc(Nc2nc3c(S(=O)(=O)c4ccccc4)nnn3c3ccccc23)c(C)c1` the IC50 was > 40 µM (inactive). In the case of `CNc1ncc(C(=O)N2CCOC(C(=O)N3CCCCCC3)C2)cn1` (stereo unspecified), the IC50 is reported as > 40 µM (inactive). With `COC(=O)c1ccc(NC(=O)c2ccc(COc3cc(Cl)ccc3Cl)cc2)cc1` the IC50 was > 40 µM (inactive). For `COc1cc2c(oc(=O)c3cc(C)cc(OC)c32)c2c([C@@H]3OC(C)[C@@H](O)[C@@](C)(O)C3O)ccc(O)c12` (stereo partly specified), the IC50 was > 40 µM (inactive). With `CC(C)=CCc1c2c(c3occ(-c4ccc(O)c(O)c4)c(=O)c3c1O)C=CC(C)(C)O2` the IC50 was 6.37 µM. With `COc1ccc(NS(=O)(=O)c2cc(NC(=O)CC(=O)c3ccc([N+](=O)[O-])cc3)ccc2Cl)cc1` the IC50 was 12.2 µM. Work on `COc1ccc(CCC(=O)Nc2nnc(C3CC(=O)N(c4ccc(C)cc4)C3)s2)cc1` (stereo unspecified) yielded an IC50 of 13.6 µM. `Cc1nc(N2CCN(c3ccc(Cl)cc3)CC2)c2oc3ccccc3c2n1` showed an IC50 of 17.7 µM. `O=C(c1ccccn1)N1CCC2(CC1)CC1(CO2)Nc2ccccc2-n2cccc21` (stereo unspecified) was tested, and the IC50 was > 40 µM (inactive). With `O=C(Cn1c(=O)[nH]c2c(-c3ccccc3)c[nH]c2c1=O)NCc1ccccc1Cl` the IC50 was > 40 µM (inactive). `Cc1ccc(C(=O)NC(C)c2ccccc2)cc1NC(=O)c1nsc2ccccc12` (stereo unspecified) was tested, and the IC50 was 27.9 µM. `Cc1cccc(OCC2=NN3C(=N)/C(=C\c4cc(C)n(-c5cc(C)cc(C)c5)c4C)C(=O)N=C3S2)c1` was tested, and the IC50 was > 40 µM (inactive). With `O=C(Nc1ccccc1)[C@@H]1[C@@H]2C(=O)N(c3ccc([N+](=O)[O-])cc3)C(=O)[C@@H]2[C@H]2c3ccccc3C=CN12` the IC50 was > 40 µM (inactive). Compound `Cc1ccc2[nH]c(=O)c(-c3nc4ccc(C)cn4c3NCc3ccc(F)cc3)cc2c1` has an IC50 of 20.3 µM. `COc1ccc(NC(=O)CC(=O)c2ccc([N+](=O)[O-])cc2)cc1S(=O)(=O)Nc1ccc(Br)cc1` gave an IC50 of 22.9 µM. With `COc1cc(NC(=O)c2ccc3c(c2)OCO3)ccc1-c1cc2ccccc2oc1=O` the IC50 was > 40 µM (inactive). Work on `O=C(Cn1cnc(-c2noc(-c3cccc(F)c3)n2)c1)Nc1ccccc1` yielded an IC50 of 39.8 µM. In the case of `Cc1ccc(-c2nn(C(C)(C)C)c3ncnc(NS(=O)(=O)c4ccc(Cl)cc4)c23)cc1`, the IC50 is reported as > 40 µM (inactive). `O=C(Cn1c(=O)n(CC2CCC(C(=O)NCCc3ccccc3)CC2)c(=O)c2ccccc21)NCc1ccco1` (stereo unspecified) showed an IC50 of 22.7 µM. With `O=C(COc1cccc(-c2noc(-c3ccc([N+](=O)[O-])cc3)n2)c1)Nc1ccccc1` the IC50 was > 40 µM (inactive). With `COc1ccc(-c2cc3nc([C@H](C)NC(=O)Cc4cccc(F)c4)nn3cn2)cc1` the IC50 was > 40 µM (inactive). Work on `CCCCCC(=O)C(CCCC)c1oc(=O)c(CCCC)c(O)c1CCCC` (stereo unspecified) yielded an IC50 of 31 µM. Work on `O=C(CCCc1nnc2c(=O)n(-c3cccc(F)c3)ccn12)NCc1ccc(F)cc1` yielded an IC50 of 35.3 µM. With `Cc1ccc(N2CC(C(=O)Nc3cccc(-c4noc(C)n4)c3)CC2=O)cc1` (stereo unspecified) the IC50 was > 40 µM (inactive). `CC(NC(=O)c1ccccc1)c1nc2ccccc2n1CC(=O)Nc1ccc(OC(F)(F)F)cc1` (stereo unspecified) showed an IC50 of 37.9 µM. In the case of `O=C(NCc1ccc2c(c1)OCO2)c1cc2c(s1)-c1ccccc1OC2`, the IC50 is reported as > 40 µM (inactive). `COc1cc(Cl)c(NC(=O)c2cc(-c3ccccn3)n[nH]2)c(OC)c1` was tested, and the IC50 was > 40 µM (inactive). `COc1c(O)cc(CC(=O)O)c(C(C)=O)c1O` showed an IC50 of 15.3 µM. Compound `COc1ccc(Nc2nnc(Cc3ccc(Cl)cc3)c(=O)[nH]2)cc1` has an IC50 of 18.7 µM. With `COc1ccc2c(c1)CCc1c-2n[nH]c1C(=O)Nc1cc(C)on1` the IC50 was > 40 µM (inactive). `Cc1ccc2c(c1)c(=O)c(C(=O)c1ccccc1)cn2CC(=O)Nc1ccc2c(c1)OCO2` was tested, and the IC50 was > 40 µM (inactive). With `CCC(=O)Nc1nc2cc(NC(=O)Nc3cc(C)cc(C)c3)ccc2s1` the IC50 was > 40 µM (inactive). In the case of `COc1ccccc1C(=O)N1CCC[C@H](Cn2nnc(-c3cccnc3)n2)C1`, the IC50 is reported as > 40 µM (inactive). With `CCC(=O)Nc1nc2cc(NC(=O)Nc3ccc(C)cc3)ccc2s1` the IC50 was > 40 µM (inactive). Work on `CCC(=O)Nc1nc2cc(NC(=O)Nc3cccc(C)c3)ccc2s1` yielded an IC50 of 18.8 µM. With `O=C(c1cccc2ncccc12)N1CCN(c2ccnc3cc(Cl)ccc23)CC1` the IC50 was > 40 µM (inactive). In the case of `CCc1cccc(CC)c1NC(=O)COC(=O)c1cc2cccc(OC)c2oc1=O`, the IC50 is reported as > 40 µM (inactive). `Cc1cccc(-n2ccnc(SCC(=O)Nc3ccc(Cl)cc3F)c2=O)c1` showed an IC50 of 16.1 µM. `CCOc1ccc(-c2nnc(-c3cnc4onc(C5CCCC5)c4c3)o2)cc1` was tested, and the IC50 was 25 µM. `CC(=O)Nc1ccc(C(=O)/C=C2\NCCc3cc4c(cc32)OCCCO4)cc1` was tested, and the IC50 was > 40 µM (inactive). `COc1ccc(-n2ccc(=O)c(-c3nc(-c4ccc(F)cc4)no3)n2)cc1` was tested, and the IC50 was > 40 µM (inactive). `N#C/C(=C\c1ccccc1F)c1nnc(N)s1` was tested, and the IC50 was > 40 µM (inactive). In the case of `Fc1ccccc1-c1nnc(C2(c3ccc4c(c3)OCO4)CCOCC2)o1`, the IC50 is reported as > 40 µM (inactive). For `Cc1cc(C(=O)NC2(O)C(=O)c3ccccc3C2=O)n(C)n1`, the IC50 was 14.2 µM. For `CC(C)n1cc(CN2CCC(C(=O)Nc3cccc(-c4cccc(Cl)c4)c3)CC2)cn1`, the IC50 was > 40 µM (inactive). `O=C1CSC(c2ccc(F)cc2)c2c(n(C3CCCCCC3)[nH]c2=O)N1` (stereo unspecified) showed an IC50 of 32.4 µM. For `Cc1cc(C)c(NC(=O)CSc2nc3nccnc3c(=O)n2Cc2ccccc2Cl)c(C)c1`, the IC50 was > 40 µM (inactive). With `O=C(CN1CC=C(c2ccccc2)CC1)Nc1ccc(S(=O)(=O)N2CCOCC2)cc1` the IC50 was > 40 µM (inactive). `CCc1ccc(-n2cc(OC(C)=O)c3c2nc(C)n2c4ccccc4nc32)cc1` was tested, and the IC50 was > 40 µM (inactive). In the case of `C[C@@H]1OC2=C(C(=O)c3cccc(O)c3C2=O)[C@H](O)[C@@H]1O`, the IC50 is reported as 6.1 µM. `COc1ccc(NC(=O)c2nnc(C(=O)NCc3ccccc3F)s2)cc1` was tested, and the IC50 was > 40 µM (inactive). `COC(=O)c1ccc2c(=O)n(-c3ccc(C)c(F)c3)c(N3CCC(C(N)=O)CC3)nc2c1` was tested, and the IC50 was > 40 µM (inactive). For `Cn1cc(C(=O)NCC2COc3ccccc3O2)c(=O)c2cc(S(=O)(=O)N3CCCCC3)ccc21` (stereo unspecified), the IC50 was > 40 µM (inactive). `COc1cccc(NC(=O)c2cnc(N3CCCC3)nc2C)c1` was tested, and the IC50 was > 40 µM (inactive). With `COCCn1c(=O)[nH]c2cc(C(=O)NCCNc3ccc([N+](=O)[O-])cc3C#N)ccc2c1=O` the IC50 was 15.5 µM. `COc1ccc(C(=O)C(C)OC(=O)c2cccc(S(=O)(=O)Nc3cc([N+](=O)[O-])ccc3OC)c2)c(OC)c1` (stereo unspecified) was tested, and the IC50 was > 40 µM (inactive). For `CCOC(=O)N1CCN(C(=O)c2ccc(NCc3ccc(F)cc3)c(S(=O)(=O)Nc3cccc(C(F)(F)F)c3)c2)CC1`, the IC50 was 29.8 µM. For `CS(=O)(=O)c1ccc2nc(N(Cc3cccnc3)C(=O)c3ccc4ccccc4c3)sc2c1`, the IC50 was > 40 µM (inactive). With `COc1ccc(C)cc1NC(=O)CN1C(=O)C2CCCC2=Nc2ccccc21` (stereo unspecified) the IC50 was > 40 µM (inactive). In the case of `Cc1ccc2[nH]c(=O)c(CN(CC3COCCO3)S(=O)(=O)c3ccc(F)cc3)cc2c1` (stereo unspecified), the IC50 is reported as > 40 µM (inactive). In the case of `COc1ccc(Sc2nc3ccccc3n3cnnc23)cc1`, the IC50 is reported as > 40 µM (inactive). In the case of `Cc1cccc(NC(=O)Nc2ccc(C)n(CC(=O)Nc3ccc(C)c(C)c3)c2=O)c1`, the IC50 is reported as > 40 µM (inactive). With `CC(=O)Nc1ccc(NC(=O)c2ccc3c(c2)CC(c2ccccc2)OC3=O)cc1` (stereo unspecified) the IC50 was 14.6 µM. `Cc1cccc(C)c1NC(=O)Cn1c(=O)n(CCCCC(=O)NCc2ccc3c(c2)OCO3)c(=O)c2ccccc21` showed an IC50 of 22.3 µM. In the case of `Cc1ccc(Cl)cc1NC(=O)c1cc(-c2ccccn2)n[nH]1`, the IC50 is reported as > 40 µM (inactive). With `Cc1ccc(CNC(=O)Cn2c(=O)n(CCCC(=O)NCc3ccc(F)cc3)c(=O)c3ccccc32)cc1` the IC50 was 17.3 µM. With `Cn1c(=O)c(C(=O)Nc2ccc(Br)cc2)nc2ccccc21` the IC50 was 26.5 µM. Compound `CC(=O)NS(=O)(=O)c1ccc(NC(=O)/C=C/c2cn(-c3ccccc3)nc2-c2ccccc2)cc1` has an IC50 of 18.8 µM. `O[C@H]1[C@H](NCc2cccc(C(F)(F)F)c2)[C@@H](c2cncnc2)C[C@H]1O` was tested, and the IC50 was > 40 µM (inactive).

Source: PubChem BioAssay AID1645863 (Buhrlage Lab, Dana-Farber Cancer Institute and Novartis …, 2021)
